The values that follow come from patent EP0917542B1, “PROCESS FOR POLYMERIZATION OF OLEFINIC MONOMERS” (E.I. DU PONT DE NEMOURS AND COMPANY, priority 1996, dated 1998).

This data set is described as follows: Stability in neutral aqueous dispersion, followed by 19F NMR. As to conditions: aqueous dispersion with ammonium perfluorononanoate surfactant; heated in an oil bath at 100°C for 2 hr. In kind it is physicochemical. The procedure: A solution of 2.41 g of ammonium perfluorononanoate (surfactant) in 1-L of deionized water was processed for 5 minutes through a Microfluidizer™ Model 110T with 4.14 g of n-perfluorobutanesulfonyl chloride. The mixture was cooled by passing though a coil chilled in ice water during the processing. A clear mixture was obtained. […] A second aliquot of the solution was heated in an oil bath at 100°C for 2 hr and then analyzed by ^19F NMR. […] A more concentrated mixture was prepared by adding 10.4 g of n-perfluorobutanesulfonyl chloride to a solution of 0.5 g ammonium perfluorononanoate in 100 mL of deionized water with processing through the Microfluidizer™.

For `O=S(=O)(Cl)C(F)(F)C(F)(F)C(F)(F)C(F)(F)F` [n-perfluorobutanesulfonyl chloride], the “19F NMR spectrum after heating (stability in a neutral aqueous mixture)” value is reported as “essentially unchanged”.
